Reference: the supplement of paper PMC2824726
Values joined by “and” are separate entries in the source; they are usually repeats but may differ in a detail not shown here. Identical values can stand only once.

These sequences were tested on MDA-MB-231 (assay: shRNA barcode abundance ratio t_end/t_zero (depletion over 4 weeks of proliferation) (log2 ratio); higher = less depletion (weaker anti-proliferative effect of the shRNA)). Conditions: time after t zero 28 days.
Description: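 Pooled lentiviral negative-selection screen of 305 pGIPZ shRNAs (Open Biosystems V2LHS clones; the 21-nt half-hairpin sense stem is embedded in a mir-30 scaffold) in MDA-MB-231 breast carcinoma cells, infected at MOI 0.3 with 0.5 ug/ml puromycin selection. Barcode abundance was read on barcode tiling microarrays (six 25-nt probes per 60-nt barcode) at t_zero (5 days post-infection) and t_end (33 days; 28 days of culture after t_zero). Values are median-normalised t_end/t_zero signal ratios, averaged over the tiling probes that passed a 10-fold background filter, from three biological replicates.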

| Sequence | shRNA barcode abundance ratio t end/t zero (log2) |
| --- | --- |
| CCAGAGAATTTGCTTACCAAA (targeted gene: RALBP1) | 0.116 |
| CCAGAGGCTTCCACTTAATAT (targeted gene: APAF1) | 0.0519 |
| CCAGAGTAACTCTAGTCAGTT (targeted gene: NUP62) | -2.05 |
| CCAGATAATATTAAGGGAAAT (targeted gene: ABCB1) | 0.255 |
| CCAGATTTCTTACCTACCATA (targeted gene: BIRC2) | 0.213 |
| CCAGCGATGAAGAATGTGGAA (targeted gene: CFLAR) | -0.0627 |
| CCAGCTGTTTATGCATAGATA (targeted gene: CXCR4) | 1.87 |
| CCAGGAGAACAGTTGTTAAAT (targeted gene: HIPK3) | 0.228 |
| CCAGTGACCTTCGCTCCACAT (targeted gene: BAD) | 0.391 |
| CCATAGCAAGGCCTAATGTTA (targeted gene: FANCF) | 0.00383 |
| CCATATAGTTCCTTGGGATTA (targeted gene: BCL2L2) | 0.203 |
| CCATATGTTCATTACATACAT (targeted gene: FANCF) | 0.17 |
| CCATATTTGCATTTGAAGGTA (targeted gene: BCL2A1) | 0.349 |
| CCATGTAATGGCAGTTATATT (targeted gene: HMGB1) | 0.175 |
| CCATTCTGATTCTTCAGTCAT (targeted gene: TOPORS) | 0.459 |
| CCATTGCCCATCGAGATTTAA (targeted gene: ACVR1) | 0.196 |
| CCATTTACAGCCATTTCTAAA (targeted gene: ESR1) | 0.128 |
| CCCAGCAATAATTTAAACTTA (targeted gene: WRN) | 0.168 |
| CCCGGGACTCCTGAGAACAAT (targeted gene: PRLR) | -0.387 |
| CCCGTATGTGTCAACACCTAT (targeted gene: CRTAC1) | -0.136 |
| CCCTGAGACCATATCCTTAAA (targeted gene: OPA1) | -0.115 |
| CCCTTCTTTGGGAATATAATT (targeted gene: CBX4) | 0.505 |

| Sequence | shRNA barcode abundance ratio t end/t zero (log2) |
| --- | --- |
| CCGAACATTAGGAATTGTTTA (targeted gene: ACVR1) | 0.264 |
| CCGAATCCGCATGACTCATAA (targeted gene: HDAC1) | 1.63 |
| CCGCAAAGAATCAAGTTGCAA (targeted gene: HSPA8) | -0.446 |
| CCGCCTCTTTGACCAGTTCTT (targeted gene: CRYAB, Cryab) | 0.00542 |
| CCGTAGCCTCTGCCCTGTAAA (targeted gene: BAG3) | 0.779 |
| CCGTGCTAACTGTGTGTACAT (targeted gene: PEA15) | -1.15 |
| CCGTTATGAAAGAGAAATGAA (targeted gene: HMGB1) | -0.0571 |
| CCTACTAACAATATCTGTTAA (targeted gene: SOCS2) | 0.0566 |
| CCTAGAAGCATTTATGATTTA (targeted gene: BCL2L2) | 0.344 |
| CCTCACCCTGTACCAGTCCAA (targeted gene: GSTP1) | -0.648 |
| CCTCACCCTGTCAGGTATCAA (targeted gene: MYBL2) | -0.1 |
| CCTCACTTTCTCCAAGAAGTT (targeted gene: MAPK8IP2) | 0.0658 |
| CCTCAGATTGTTGTTGTTAAT (targeted gene: IL6) | 0.311 |
| CCTCAGTGTCTGTTGAAGTAA (targeted gene: BIRC6) | -0.238 |
| CCTCATGTCTTGATAAGTTAA (targeted gene: FOXO1) | 0.0815 |
| CCTCCCTCTCAGAACCAATAA (targeted gene: DDAH2) | -0.269 |
| CCTCCGTCCCTCCTACCATAA (targeted gene: MYBL2) | 0.0727 |
| CCTGACCTCCCTCTAATTTAT (targeted gene: IL10) | 0.309 |
| CCTGCAAACCTTATCCTCTAT (targeted gene: MAPK8IP2) | 0.442 |
| CCTGCCCATTAGAGAAGTATT (targeted gene: VHL) | -0.221 |
| CCTGGCTCCTCTACTGTTTAA (targeted gene: BIRC5) | -0.954 |
| CCTGGGCATTCTTGTTTCAAT (targeted gene: IL1A) | -0.328 |

| Sequence | shRNA barcode abundance ratio t end/t zero (log2) |
| --- | --- |
| CCTGTCAATATTGATGACTTG (targeted gene: BRAF) | 0.319 |
| CCTGTTATCAATCTGCTAAAT (targeted gene: FOXO1) | 0.0156 |
| CCTGTTGGTGTCTTTATTATT (targeted gene: CDH1) | 0.164 |
| CCTTAAATCCTCATTGCAAAT (targeted gene: USP9X) | -0.782 |
| CCTTAGCAATGTCTTAGGAAA (targeted gene: BIRC5) | -2.27 |
| CCTTCCAGAGTTATGGAAATT (targeted gene: BCL2A1) | 0.456 |
| CCTTCGCCAGATCACTGTTAA (targeted gene: PRDX2) | 0.234 |
| CCTTGCTGTTGTGAAATCTAT (targeted gene: ANXA5) | -0.252 |
| CCTTGGAAAGGATGAACAAAT (targeted gene: TOPORS) | 0.154 |
| CCTTTCTCCAAACCCTCTTAA (targeted gene: BIRC2) | 0.28 |
| CCTTTGAAAGTGGGTGGAATT (targeted gene: TNFAIP3) | 0.0769 |
| CCTTTGAACTTGATTGCCTAT (targeted gene: SFRP1) | -0.127 |
| CGAACTCCTCTTCTCAGTTAA (targeted gene: IGF1R) | 0.302 |
| CGACTCTATCAGGGTATAAAT (targeted gene: MSH2) | 0.0312 |
| CGACTTAGACTTGACCTATAT (targeted gene: PTEN) | -0.304 |
| CGAGACATTCGCATCAAATAT (targeted gene: NRG2) | 0.219 |
| CGAGAGAGTTTCCCTACGTAT (targeted gene: CDH1) | 0.249 |
| CGAGCCCTGGACACCAACTAT (targeted gene: TGFB1) | 0.183 |
| CGAGGCAACTTGAACTCAGAA (targeted gene: IER3) | 0.272 |
| CGAGTTTGTGGACTCCTTTAA (targeted gene: BAD) | -0.185 |
| CGCAAGAATCTGTTCCTAGTG (targeted gene: FAIM3) | -0.255 |
| CGCAGATAGGAGTAGTCTTTA (targeted gene: NFIA) | 0.432 |

| Sequence | shRNA barcode abundance ratio t end/t zero (log2) |
| --- | --- |
| CGCCAGCACCGGAGGAAGAAA (targeted gene: CDKN2A) | -0.0357 |
| CGCCTTTCCTTAAGGAACAAA (targeted gene: NAIP) | 0.0933 |
| CGCTACTTCCTCCTCAAGAAT (targeted gene: AKT1) | 0.372 |
| CGGACCTTAGTGAATATAAAT (targeted gene: OPA1) | -0.0398 |
| CGGAGAGTTATCCTGATAAAT (targeted gene: SFRP1) | -0.114 |
| CGGATTAGGGCATTTGAGAAA (targeted gene: IL7) | 0.319 |
| CGGCTTTATGATGCTTATGAA (targeted gene: ANXA5) | 0.161 |
| CGGGTTTCTCCGGCGTCATTA (targeted gene: PIM1) | 0.0461 and 0.0898 |
| CGGTATTAAGTTGTAATTTAA (targeted gene: PROK2) | 0.137 |
| CGGTTTGCTGAGGAGAAAGAA (targeted gene: AVEN) | 0.241 |
| CGTAAGATGATGGATTTGATT (targeted gene: BIRC5) | 0.0401 |
| CGTCGTAATCACCACACTGAA (targeted gene: CDH1) | 0.11 |
| CGTGATTCTAAGAATCTCAAA (targeted gene: IL1A) | 0.666 |
| CGTTATTAACTTGTTATTTAG (targeted gene: API5) | 0.468 |
| GAACTAGATCTGTTGCTTAAT (targeted gene: AVEN) | 0.231 |
| GAGGATTATGGCTAACAAGAA (targeted gene: MCL1) | 0.27 |
| GATCCTAAGATGTGTTCTTAT (targeted gene: CYP1B1) | 0.664 |
| GATGATAGTATTGAAGCAGAT (targeted gene: BNIP2) | 0.366 |
| GCAAAGAATCTAGATGCAATA (targeted gene: IL6) | 0.508 and 0.569 |
| GCAAAGATCCTGATATCTTAT (targeted gene: RASA1) | 0.278 |
